System: 233499-124-R-J3-PDC spheroids with HUVEC/MSC, viability
Test: Anticancer human tumor 233499-124-R-J3-PDC patient-derived colon adenocarcinoma cell line growth inhibition [PI3K]
Conditions: for IC50: curve of first compound; for viability, T/C: stronger effect = lower value
Summary of the method: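 Agents were dosed from a top concentration near clinical Cmax (otherwise 10 microM) in half-log decrements, alone or combined with PI3K inhibitors. The spheroids contain tumor cells plus endothelial (HUVEC) and MSC stroma; viability is measured.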

[1] = second compound 0.00316 µM, first compound 0.0316 µM
[2] = second compound 0.00316 µM, first compound 0.1 µM
[3] = second compound 0.00316 µM, first compound 0.316 µM
[4] = second compound 0.00316 µM, first compound 1 µM
[5] = second compound 0.00316 µM, first compound 3.16 µM
[6] = second compound 0.00316 µM, first compound 10 µM
[7] = second compound 0.01 µM, first compound 0.0316 µM
[8] = second compound 0.01 µM, first compound 0.1 µM
[9] = second compound 0.01 µM, first compound 0.316 µM
[10] = second compound 0.01 µM, first compound 1 µM
[11] = second compound 0.01 µM, first compound 3.16 µM
[12] = second compound 0.01 µM, first compound 10 µM
[13] = second compound 0.0316 µM, first compound 0.0316 µM
[14] = second compound 0.0316 µM, first compound 0.1 µM
[15] = second compound 0.0316 µM, first compound 0.316 µM
[16] = second compound 0.0316 µM, first compound 1 µM
[17] = second compound 0.0316 µM, first compound 3.16 µM
[18] = second compound 0.0316 µM, first compound 10 µM
[19] = second compound 0.1 µM, first compound 0.0316 µM
[20] = second compound 0.1 µM, first compound 0.1 µM
[21] = second compound 0.1 µM, first compound 0.316 µM
[22] = second compound 0.1 µM, first compound 1 µM
[23] = second compound 0.1 µM, first compound 3.16 µM
[24] = second compound 0.1 µM, first compound 10 µM
[25] = second compound 0.316 µM, first compound 0.0316 µM
[26] = second compound 0.316 µM, first compound 0.1 µM
[27] = second compound 0.316 µM, first compound 0.316 µM
[28] = second compound 0.316 µM, first compound 1 µM
[29] = second compound 0.316 µM, first compound 3.16 µM
[30] = second compound 0.316 µM, first compound 10 µM
[31] = second compound 1 µM, first compound 0.0316 µM
[32] = second compound 1 µM, first compound 0.1 µM
[33] = second compound 1 µM, first compound 0.316 µM
[34] = second compound 1 µM, first compound 1 µM
[35] = second compound 1 µM, first compound 3.16 µM
[36] = second compound 1 µM, first compound 10 µM
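Further: spheroids exposed to agents for seven days before readout.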
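Wherever viability, T/C is given: percent viability relative to DMSO vehicle control taken as 100%.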

C#Cc1c(F)ccc2cc(O)cc(-c3ncc4c(N5CC6CCC(C5)N6)nc(OCC56CCCN5CC(F)C6)nc4c3F)c12 (centres undefined) + CC(Nc1ccc2c(c1)OCCn1cc(N3C(=O)OCC3C(F)F)nc1-2)C(N)=O
IC50 (second compound 0.00316 µM): > 10 µM | IC50 (second compound 0.01 µM): 2.92 µM | IC50 (second compound 0.0316 µM): > 10 µM | IC50 (second compound 0.1 µM): > 10 µM | IC50 (second compound 0.316 µM): 5.35 µM | IC50 (second compound 1 µM): 0.716 µM | viability, T/C [1]: 83.7% | viability, T/C [2]: 76% | viability, T/C [3]: 92% | viability, T/C [4]: 110% | viability, T/C [5]: 95.3% | viability, T/C [6]: 85.5% | viability, T/C [7]: 99.1% | viability, T/C [8]: 105% | viability, T/C [9]: 91.4% | viability, T/C [10]: 98.7% | viability, T/C [11]: 46.5% | viability, T/C [12]: 46% | viability, T/C [13]: 93.1% | viability, T/C [14]: 102% | viability, T/C [15]: 85.4% | viability, T/C [16]: 85.4% | viability, T/C [17]: 95.8% | viability, T/C [18]: 77.4% | viability, T/C [19]: 99.8% | viability, T/C [20]: 81% | viability, T/C [21]: 83.9% | viability, T/C [22]: 60.2% | viability, T/C [23]: 70.8% | viability, T/C [24]: 49.6% | viability, T/C [25]: 77.2% | viability, T/C [26]: 78.2% | viability, T/C [27]: 63.2% | viability, T/C [28]: 75.1% | viability, T/C [29]: 59.2% | viability, T/C [30]: 38% | viability, T/C [31]: 67.8% | viability, T/C [32]: 58.6% | viability, T/C [33]: 58.6% | viability, T/C [34]: 44% | viability, T/C [35]: 44.4% | viability, T/C [36]: 35.2%

C=CC(=O)N1CCN(c2nc(=O)n(-c3c(C)ccnc3C(C)C)c3nc(-c4c(O)cccc4F)c(F)cc23)C(C)C1 (centres undefined) + CC(Nc1ccc2c(c1)OCCn1cc(N3C(=O)OCC3C(F)F)nc1-2)C(N)=O
IC50 (second compound 0.00316 µM): > 10 µM | IC50 (second compound 0.01 µM): > 10 µM | IC50 (second compound 0.0316 µM): > 10 µM | IC50 (second compound 0.1 µM): > 10 µM | IC50 (second compound 0.316 µM): > 10 µM | IC50 (second compound 1 µM): > 10 µM | viability, T/C [1]: 101% | viability, T/C [2]: 87.5% | viability, T/C [3]: 87.9% | viability, T/C [4]: 113% | viability, T/C [5]: 100% | viability, T/C [6]: 100% | viability, T/C [7]: 85.9% | viability, T/C [8]: 88.8% | viability, T/C [9]: 77.5% | viability, T/C [10]: 95.6% | viability, T/C [11]: 97.5% | viability, T/C [12]: 86.2% | viability, T/C [13]: 85.8% | viability, T/C [14]: 106% | viability, T/C [15]: 91.4% | viability, T/C [16]: 92.8% | viability, T/C [17]: 93.5% | viability, T/C [18]: 84.6% | viability, T/C [19]: 103% | viability, T/C [20]: 94.5% | viability, T/C [21]: 91.3% | viability, T/C [22]: 83% | viability, T/C [23]: 87% | viability, T/C [24]: 57.1% | viability, T/C [25]: 92.7% | viability, T/C [26]: 80.5% | viability, T/C [27]: 80.8% | viability, T/C [28]: 77.4% | viability, T/C [29]: 71% | viability, T/C [30]: 85.5% | viability, T/C [31]: 61% | viability, T/C [32]: 67.7% | viability, T/C [33]: 44.3% | viability, T/C [34]: 56.3% | viability, T/C [35]: 63.6% | viability, T/C [36]: 66.9%

— PubChem BioAssay AID1963984 (Molecular Pharmacology Branch, DTP, NCI, 2024)
